Experimental data from patent publication US5597845A, “Substituted alkyldiamine derivatives” (Merrell Pharmaceuticals Inc., priority 1994, dated 1997).

Legend:
NK2 receptor = biological target: T1, NK2 receptor (Bos taurus, UniProt P05363); assay: Antagonism of tachykinin (NKA)-induced phosphatidylinositol (PI) turnover in vitro, SKLKB82#3 cells; format: cell-based; details: NKA agonist, 3 experiments
T1 construct: expressed in transfected cells; host or cells: SKLKB82#3 cells (murine B82 fibroblasts, own knowledge)
T1 sequence (P05363 1-384): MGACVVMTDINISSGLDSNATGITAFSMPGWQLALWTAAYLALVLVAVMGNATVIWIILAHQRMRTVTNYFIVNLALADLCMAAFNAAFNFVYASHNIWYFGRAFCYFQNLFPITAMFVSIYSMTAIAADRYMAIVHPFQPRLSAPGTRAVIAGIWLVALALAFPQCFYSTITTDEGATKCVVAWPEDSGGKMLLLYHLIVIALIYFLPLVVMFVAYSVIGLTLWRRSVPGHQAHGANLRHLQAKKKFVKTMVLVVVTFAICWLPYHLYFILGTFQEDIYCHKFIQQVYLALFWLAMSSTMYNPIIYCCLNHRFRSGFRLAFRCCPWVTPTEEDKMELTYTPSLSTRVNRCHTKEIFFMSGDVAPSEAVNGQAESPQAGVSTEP
Protocol: (§1) Tachykinin-mediated phosphatidylinositol (PI, inositol phosphate) accumulation was measured in UCll or SKLKB82#3 cells in the presence and absence of NK1 or NK2 receptor antagonists, respectively. Tissues were incubated in Krebs-Henseleit buffer at 37° C. with 95% O2 --5% CO2 gassing. Tissues were then incubated with fresh buffer containing 100 μCi of myo-[2-^3 H(N)] inositol at 37° C. for 60 min with gentle gassing. After washing twice in 5 ml room temperature buffer containing 10 mM LiCl, tissues were incubated for 30 min at room temperature with a buffer change at 15 min. […] The third elution was collected and 1 ml counted in 7 ml scintillation fluid. A 50 μl aliquot of the organic (bottom) phase was removed, dried in a scintillation vial and counted in 7 ml scintillation fluid.
(§2) The ratio of DPM in the aqueous phase aliquot (total inositol phosphates) to the DPM in the 50 μl organic phase aliquot (total [^3 H]inositol incorporated) was calculated for each sample. Data are expressed as a percent of agonist-induced accumulation of [^3 H]-inositol phosphates over basal levels. […] Dose-response graphs are constructed and the ability of the test compounds to inhibit tachykinin-induced phosphatidyinositol turnover determined with the aid of a computer program. […]

NK1 receptor [1] = biological target: T2, NK1 receptor (Homo sapiens, UniProt P25103); assay: Antagonism of tachykinin (SP)-induced phosphatidylinositol (PI) turnover in vitro, UCll cells; format: cell-based; details: SP agonist, 3 experiments
T2 construct: Receptor source for NK1 receptor is UCll cells; endogenous in cells; host or cells: UC11 cells (printed UCll)
Protocol: as §1, §2

[2] = biological target: T3, human jejunal NK2 receptor (Homo sapiens, UniProt P21452); assay: Antagonism of iodinated tachykinin binding: NK2 receptor affinity in HSKR-1 cells (125 iodohistidyl-1-neurokinin A); details: HSKR-1 cells (mouse 3T3 fibroblasts expressing human jejunal NK2 receptor); 125I-neurokinin A 0.1 nM; 2 hr room temperature; mean of several experiments
T3 construct: expressed in transfected cells; host or cells: HSKR-1 cells (mouse 3T3 fibroblasts)
T3 sequence (P21452 1-398): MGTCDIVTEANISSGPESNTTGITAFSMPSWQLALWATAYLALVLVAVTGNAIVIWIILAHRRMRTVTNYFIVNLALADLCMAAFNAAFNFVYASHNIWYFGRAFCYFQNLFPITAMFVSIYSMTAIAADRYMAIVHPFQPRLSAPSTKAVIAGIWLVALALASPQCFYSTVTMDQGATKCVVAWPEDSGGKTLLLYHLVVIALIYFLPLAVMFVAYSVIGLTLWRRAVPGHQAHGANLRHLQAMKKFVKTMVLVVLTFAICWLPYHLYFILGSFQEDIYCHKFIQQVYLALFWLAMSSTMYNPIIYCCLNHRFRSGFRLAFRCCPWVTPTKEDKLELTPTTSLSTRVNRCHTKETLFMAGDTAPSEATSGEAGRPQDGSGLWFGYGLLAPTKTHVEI
Protocol: (§3) The NK1 receptor affinity of proposed tachykinin antagonists was evaluated in guinea pig lungs (Keystone Biologicals, Cleveland, Ohio) and affinity for the NK2 receptor evaluated in HSKR-1 cells (which are mouse 3T3 fibroblasts expressing the human jejunal NK2 receptor). Tissues or cells were homogenized with a Polytron in 15 volumes of 50 mM Tris-HCl buffer (pH 7.4, 4° C.) and centrifuged. The pellet was resuspended in Tris-HCl buffer and was centrifuged; the pellet was washed twice by resuspension. The final pellet was resuspended at a concentration of 40 mg/ml for tissues and 20 mg/ml for cells in incubation buffer and remained at room temperature for at least 15 min prior to use. Receptor binding was initiated by addition of 250 ul membrane preparation in duplicate to 0.1 nM of the following radioligands: ^125 I-Bolton Hunter Lys-3 labeled substance P and ^125 iodohistidyl-1-neurokinin A; in a final volume of 500 ul of buffer containing 50 mM Tris-HCl (pH 7.4 at room temperature), 0.1% bovine serum albumin, 2 mM MnCl2, 40 ug/ml bacitracin, 4 μg/ml leupeptin and chymostatin, 1 μM thiorphan and various doses of the putative tachykinin antagonists. Incubations were performed at room temperature for 90 min (NK1 receptor assays) or 2 hr (NK2 receptor assay); binding was terminated by addition of 50 mM Tris-HCl buffer (pH 7.4, 4° C.) and filtration under vacuum through GF/B filters presoaked with 0.1% polyethyleneimine (NK, receptor assays) or 0.5% bovine serum albumin (NK2 receptor assay). Filter bound radioactivity was quantitated in a gamma counter. Nonspecific binding was defined as binding in the presence of 1 μM substance P or neurokinin A. Specific binding was calculated by subtracting nonspecific binding from total binding. Competition of iodinated SP or NKA binding by test compounds or standards was expressed as a percentage of this maximum competition. IC50 values (concentration required to inhibit 50% of receptor binding) were generated for each of the test compounds by nonlinear regression using an iterative curve fitting program (GraphPAD Inplot, San Diego, Calif.).
(§4) IC50 values for some of the compounds of the present invention are found in Table 1 and represent the mean of several experiments.

NK1 receptor [3] = biological target: T4, NK1 receptor (Cavia porcellus, UniProt P30547); assay: Antagonism of iodinated tachykinin binding: NK1 receptor affinity in guinea pig lungs (125I-Bolton Hunter Lys-3 labeled substance P); details: 125I-substance P 0.1 nM, 90 min room temperature, mean of several experiments
T4 construct: evaluated in guinea pig lungs; tissue Keystone Biologicals, Cleveland, Ohio; host or cells: guinea pig lung
Protocol: as §3, §4

UCll or SKLKB82#3 cells = assay: Phosphatidylinositol (PI) turnover in vitro, UCll or SKLKB82#3 cells, statements not split by receptor; format: cell-based
Protocol: as §1, with “min. Buffer was removed and Krebs-Henseleit buffer (containing 40 μg/ml bacitracin, 4 μg/ml each of leupeptin and chymostatin, 0.1% bovine serum albumin and 10 mM each of thiorphan and LiCl) including the test compound is added. After 15 min, SP was added to UCll cells or NKA to SKLKB82#3 cells at various concentrations to start the reaction. After incubation for 60 min at room temperature the reaction was terminated by addition of 930 μl chloroform: methanol (1:2 by volume) to each tube, followed by 310 μl chloroform and 310 μl doubly distilled water.” for “min.”
as §2, with “program. Data is expressed as percent stimulation of total inositol phosphate accumulation over basal levels and normalized to the maximum response produced by SP.” for “program.”

T2 sequence (P25103 whole entry): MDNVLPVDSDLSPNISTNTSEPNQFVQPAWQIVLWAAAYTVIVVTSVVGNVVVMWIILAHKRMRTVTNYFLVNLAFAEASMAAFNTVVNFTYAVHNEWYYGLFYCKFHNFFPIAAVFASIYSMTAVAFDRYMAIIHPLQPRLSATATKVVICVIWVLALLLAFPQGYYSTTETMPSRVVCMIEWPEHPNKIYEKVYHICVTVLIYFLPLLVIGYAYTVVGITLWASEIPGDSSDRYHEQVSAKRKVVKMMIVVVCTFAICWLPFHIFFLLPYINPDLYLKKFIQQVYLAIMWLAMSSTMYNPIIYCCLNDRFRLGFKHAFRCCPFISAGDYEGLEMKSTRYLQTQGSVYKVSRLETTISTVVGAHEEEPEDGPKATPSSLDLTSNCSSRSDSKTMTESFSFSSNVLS
T4 sequence (P30547 whole entry): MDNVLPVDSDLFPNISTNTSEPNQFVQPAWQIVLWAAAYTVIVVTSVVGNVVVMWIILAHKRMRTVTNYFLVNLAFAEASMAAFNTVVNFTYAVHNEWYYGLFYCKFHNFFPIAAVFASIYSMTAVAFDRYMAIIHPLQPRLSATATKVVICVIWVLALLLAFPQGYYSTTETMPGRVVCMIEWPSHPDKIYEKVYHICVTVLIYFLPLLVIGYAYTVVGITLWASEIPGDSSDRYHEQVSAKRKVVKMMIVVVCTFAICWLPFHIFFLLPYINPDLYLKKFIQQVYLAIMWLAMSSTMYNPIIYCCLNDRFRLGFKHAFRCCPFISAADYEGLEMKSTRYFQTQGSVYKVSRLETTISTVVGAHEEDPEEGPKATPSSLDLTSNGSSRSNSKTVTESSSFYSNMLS

-slope (Schild analysis), NK2 receptor (NK2 receptor): 1.11
pA2, tachykinin-induced PI turnover, NK2 receptor (NK2 receptor; Schild analysis): 6.70
-slope (Schild analysis), NK1 receptor (NK1 receptor [1]): 1.28
pA2, tachykinin-induced PI turnover, NK1 receptor (NK1 receptor [1]; Schild analysis): 7.34
IC50 [2]: 609 nM
IC50 (NK1 receptor [3]): 25.7 nM
Compound: COC(=O)[C@H](Cc1c[nH]c2ccccc12)NCCN[C@@H](Cc1ccc2ccccc2c1)C(=O)N(C)Cc1ccccc1OC [Compound No. 1]
slope of the lines obtained by a Schild analysis versus one (UCll or SKLKB82#3 cells; Schild analysis, 3 experiments): not significantly different from one (1)
PI turnover when administered by itself (agonist activity) (UCll or SKLKB82#3 cells; compound alone, no tachykinin agonist): no PI turnover
mode of antagonism (UCll or SKLKB82#3 cells; from Schild analysis slope): competitive antagonist
